Experimental data reported in US20210128561A1, “MRGX Receptor Antagonists” (Rheinische-Friedrich-Wilhelms-Universität Bonn, priority 2019, published 2021).

Columns and labels:
human MrgX4 L83S = biological target: T1, human MrgX4 L83S (Homo sapiens, UniProt Q96LA9, L83S); assay: β-arrestin assay (CHO β-arrestin human MrgX4 L83S); format: cell-based; conditions: for % inhibition ± SEM: test concentration not given
T1 construct: expressed in transfected cells; host or cells: CHO beta-arrestin cells
T1 sequence (Q96LA9 whole entry L83S): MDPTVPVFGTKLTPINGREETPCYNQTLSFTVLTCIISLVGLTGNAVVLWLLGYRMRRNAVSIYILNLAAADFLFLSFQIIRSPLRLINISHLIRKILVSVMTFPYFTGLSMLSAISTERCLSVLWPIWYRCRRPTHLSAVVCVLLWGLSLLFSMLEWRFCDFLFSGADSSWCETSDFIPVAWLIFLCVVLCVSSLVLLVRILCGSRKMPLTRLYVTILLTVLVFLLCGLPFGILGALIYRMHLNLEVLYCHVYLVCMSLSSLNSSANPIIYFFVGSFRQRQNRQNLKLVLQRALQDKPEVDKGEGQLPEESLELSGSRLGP

human wildtype MrgX2 = biological target: T2, human wildtype MrgX2 (Homo sapiens, UniProt Q96LB1); assay: calcium assay (LN229 cells recombinantly expressing human wildtype MrgX2); format: cell-based; conditions: for % inhibition ± SEM: test concentration not given
T2 construct: expressed in transfected cells; host or cells: LN229 cells
T2 sequence (Q96LB1 1-330): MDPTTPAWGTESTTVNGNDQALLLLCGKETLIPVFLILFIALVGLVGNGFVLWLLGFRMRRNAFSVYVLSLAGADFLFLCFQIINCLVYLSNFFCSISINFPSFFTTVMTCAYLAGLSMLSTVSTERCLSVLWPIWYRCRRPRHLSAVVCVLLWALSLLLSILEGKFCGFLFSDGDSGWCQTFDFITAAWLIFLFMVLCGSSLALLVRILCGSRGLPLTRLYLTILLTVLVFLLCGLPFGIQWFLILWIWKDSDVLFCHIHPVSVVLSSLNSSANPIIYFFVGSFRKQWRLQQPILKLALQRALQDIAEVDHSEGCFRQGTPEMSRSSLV

Row | Molecule | IC50 (human MrgX4 L83S) [µM] | % inhibition ± SEM (human MrgX4 L83S) [%] | IC50 (human wildtype MrgX2) [µM] | % inhibition ± SEM (human wildtype MrgX2) [%]
1 | 2-Methyl-4H-benzo[4,5]thiazolo[3,2-a]pyrimidin-4-one [B-60] | > 100 | 14 | – | –
2 | Cc1cc(=O)n2cc[nH]c2n1 [A-1] | > 100 | 4 | – | –
3 | O=c1ccnc2[nH]c3ccccc3n12 [A-2] | > 100 | 18 | – | –
4 | CCOC(=O)c1cnc2[nH]c3ccccc3n2c1=O [A-3] | > 100 | 25 | – | –
5 | CCCn1c(C)cc(=O)n2c3ccccc3nc12 [A-4] | > 100 | 35 | – | –
6 | Cc1cc(=O)n2c3ccccc3nc2n1Cc1ccccc1 [A-5] | > 10 | −5 | – | –
7 | Cc1cc(=O)n2c3ccccc3nc2n1Cc1ccc(Cl)cc1 [A-6] | > 10 | 14 | – | –
8 | Cc1cc(=O)n2c3ccccc3nc2n1CC#N [A-7] | > 100 | 43 | – | –
9 | Cc1[nH]c2nc3ccccc3n2c(=O)c1C [A-8] | 11.6 ± 3.7 | – | 2.89 ± 0.24 | –
10 | CCc1c(C)[nH]c2nc3ccccc3n2c1=O [A-9] | 3.23 ± 0.36 | – | 0.662 ± 0.102 | –
11 | CCCc1c(C)[nH]c2nc3ccccc3n2c1=O [A-10] | 2.42 ± 0.22 | – | 0.683 ± 0.174 | –
12 | CCCCc1c(C)[nH]c2nc3ccccc3n2c1=O [A-11] | > 100 | 37 | – | –
13 | Cc1[nH]c2nc3ccccc3n2c(=O)c1CCC(C)C [A-12] | > 10 | −25 | – | –
14 | Cc1[nH]c2nc3ccccc3n2c(=O)c1Cc1ccccc1 [A-13] | > 100 | 24 | – | –
15 | Cc1[nH]c2nc3ccccc3n2c(=O)c1CCc1ccccc1 [A-14] | > 10 | 19 | – | –
16 | CCOC(=O)CCc1c(C)[nH]c2nc3ccccc3n2c1=O [A-15] | 1.4 ± 0.88 | – | > 100 | 3
17 | Cc1[nH]c2nc3ccccc3n2c(=O)c1CCC#N [A-16] | > 100 | 26 | – | –
18 | CC(C)c1cc(=O)n2c(nc3ccccc32)[nH]1 [A-17] | 3.22 ± 0.82 | – | > 100 | 70
19 | CC(C)(C)c1cc(=O)n2c(nc3ccccc32)[nH]1 [A-18] | > 100 | 48 | – | –
20 | CCCc1cc(=O)n2c(nc3ccccc32)[nH]1 [A-19] | 14.7 ± 1.3 | – | > 100 | 27
21 | O=c1cc(-c2ccccc2)[nH]c2nc3ccccc3n12 [A-20] | > 100 | −2 | – | –

Row | Molecule | IC50 (human MrgX4 L83S) [µM] | % inhibition ± SEM (human MrgX4 L83S) [%] | IC50 (human wildtype MrgX2) [µM] | % inhibition ± SEM (human wildtype MrgX2) [%]
22 | CCCc1c(-c2ccccc2)[nH]c2nc3ccccc3n2c1=O [A-21] | 0.583 ± 0.049 | – | 0.0121 ± 0.0015 | –
23 | N#CCCc1c(-c2ccccc2)[nH]c2nc3ccccc3n2c1=O [A-22] | > 100 | 2 | – | –
24 | CCc1c(O)[nH]c2nc3ccccc3n2c1=O [A-24] | > 100 | 16 | > 100 | 2
25 | CCCCc1c(O)[nH]c2nc3ccccc3n2c1=O [A-25] | > 100 | 22 | – | –
26 | COCc1cc(=O)n2c(nc3ccccc32)[nH]1 [A-26] | > 100 | −13 | – | –
27 | O=C(O)Cc1cc(=O)n2c(nc3ccccc32)[nH]1 [A-27] | > 100 | −18 | – | –
28 | COC(=O)Cc1cc(=O)n2c(nc3ccccc32)[nH]1 [A-28] | > 100 | 4 | – | –
29 | CCOC(=O)Cc1cc(=O)n2c(nc3ccccc32)[nH]1 [A-29] | > 100 | −33 | – | –
30 | CCc1c(C)n(C)c2nc3ccccc3n2c1=O [A-30] | > 10 | 2 | > 100 | 31
31 | CCc1c(C)nc2[nH]ccn2c1=O [B-31] | > 100 | 40 | – | –
32 | O=C(O)c1cnc2[nH]c3ccccc3n2c1=O [B-32] | > 100 | 45 | – | –
33 | Cc1cc(=O)n2c(n1)[nH]c1ccccc12 [B-33] | > 100 | 24 | – | –
34 | Cc1[nH]c2nc3ccccc3n2c(=O)c1CCO [B-34] | > 100 | 22 | > 100 | −2
35 | COCCc1c(C)[nH]c2nc3ccccc3n2c1=O [B-35] | > 10 | 20 | – | –
36 | CC(C)c1cc(=O)n2c3ccccc3n(C)c2n1 [B-36] | > 100 | 48 | > 100 | 10
37 | CCc1c(C(C)C)[nH]c2nc3ccccc3n2c1=O [B-37] | 0.29 ± 0.098 | – | 0.00248 ± 0.00075 | –
38 | CCc1c(C(C)C)[nH]c2nc3c(C)cccc3n2c1=O [B-38] | > 100 | 15 | 0.054 ± 0.0192 | –
39 | CCc1c(C(C)C)[nH]c2nc3cc(C)c(C)cc3n2c1=O [B-39] | 0.0877 ± 0.0368 | – | 0.0184 ± 0.0054 | –
40 | CCc1c(C(C)C)[nH]c2nc3cc(F)c(F)cc3n2c1=O [B-40] | 0.0225 ± 0.0024 | – | 0.00042 ± 5.4e-05 | –
41 | CCc1c(C(C)C)[nH]c2nc3cc(Cl)c(Cl)cc3n2c1=O [B-41] | 0.477 ± 0.087 | – | 0.00827 ± 0.00082 | –
42 | CCCc1c(C(C)C)[nH]c2nc3ccccc3n2c1=O [B-42] | 0.512 ± 0.107 | – | > 100 | 68

Row | Molecule | IC50 (human MrgX4 L83S) [µM] | % inhibition ± SEM (human MrgX4 L83S) [%] | IC50 (human wildtype MrgX2) [µM] | % inhibition ± SEM (human wildtype MrgX2) [%]
43 | CCCc1[nH]c2nc3ccccc3n2c(=O)c1CC [B-43] | 0.278 ± 0.042 | – | – | –
44 | CCCc1[nH]c2nc3cc(C)c(C)cc3n2c(=O)c1CC [B-44] | 1.4 ± 0.36 | – | 0.199 ± 0.025 | –
45 | CCc1c(-c2ccc(OC)cc2)[nH]c2nc3ccccc3n2c1=O [B-46] | 0.25 ± 0.061 | – | – | –
46 | Cc1cc(=S)n2c(nc3ccccc32)[nH]1 [B-57] | > 100 | −4 | – | –
47 | O=c1ccsc2nc3ccccc3n12 [B-58, 4H-benzo[4,5]imidazo[2,1-b][1,3]thiazin-4-one] | > 100 | −44 | – | –
48 | Cc1cc(=O)n2c(n1)oc1ccccc12 [B-59, 2-Methyl-4H-benzo[4,5]oxazolo[3,2-a]pyrimidin-4-one] | > 100 | 13 | – | –
49 | CSc1cc(C(C)C)nc2nc3ccccc3n12 [B-61] | > 10 | 2 | – | –
50 | Cc1cc(=O)n2c(nc3cc4ccccc4cc32)[nH]1 [B-62] | > 100 | 18 | – | –
51 | CC(C)c1cc(=O)n2c(nc3cc4ccccc4cc32)[nH]1 [B-63] | > 100 | 6 | – | –
52 | O=c1ccn2c(n1)[nH]c1ccccc12 [B-64, Benzo[4,5]imidazo[1,2-a]pyrimidin-2(10H)-one] | > 100 | 0 | – | –
53 | COC(=O)c1cc(=O)[nH]c2nc3ccccc3n12 [B-65] | > 100 | 48 | – | –
54 | NC1=NC=NC2Nc3ccccc3N12 (stereo not shown) [B-66] | > 100 | 4 | – | –
55 | Cc1[nH]c2nc3ccccc3n2c(=O)c1CCCl [C-67] | 8.04 ± 1.63 | – | – | –
56 | CNCCc1c(C)[nH]c2nc3ccccc3n2c1=O [C-68] | > 100 | 8 | – | –
57 | Cc1[nH]c2nc3ccccc3n2c(=O)c1CCN=[N+]=[N-] [C-69] | > 100 | 9 | – | –
58 | CCc1c(C(C)C)nc2n(Cc3ccccc3)c3ccc(C)cc3n2c1=O [C-72] | > 10 | 39 | – | –
59 | CCc1c(C(C)C)nc2n(Cc3ccccc3)c3cc(C)ccc3n2c1=O [C-73] | > 10 | 40 | – | –
60 | CCc1c(C(C)(C)C)[nH]c2nc3ccccc3n2c1=O [C-76] | 0.349 ± 0.065 | – | – | –
61 | CCc1c(C2CC2)[nH]c2nc3ccccc3n2c1=O [C-77] | 1.18 ± 0.33 | – | – | –
62 | CCc1c(-c2cccs2)[nH]c2nc3ccccc3n2c1=O [C-80] | > 10 | 34 | – | –
63 | CCc1c(C(C)C)[nH]c2nc3ccc(Cl)cc3n2c1=O [C-85] | 0.223 ± 0.019 | – | – | –
